From PubChem BioAssay AID248 (DTP/NCI, 2004)
Several values for one entry are separate records, joined by “and”; a condition that tells them apart may be missing. Equal values may be shown once. Toxic doses and inconclusive results are not listed. No stated cut-off is given here; in the data, active means T/C of 150% or more; inactive means T/C below 125%.

System: L1210 leukemia ip in BDF1 mice, survival T/C
Test: NCI In Vivo Anticancer Drug Screen. Data for tumor model L1210 Leukemia (intraperitoneal) in B6D2F1 (BDF1) mice
Conditions: endpoint: mean survival time, higher = longer survival
Outline: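 In this screen, tumor-bearing mice given compound are compared to those given vehicle, and their survival values are reported as a treated-to-control quotient.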

[1] = dose: 100.0 mg/kg/injection, schedule: Q01DX001 (ip), vehicle: saline
[2] = dose: 100.0 mg/kg/injection, schedule: Q04DX002 (ip), vehicle: saline with Tween-80
[3] = dose: 200.0 mg/kg/injection, schedule: Q04DX002 (ip), vehicle: saline with Tween-80
[4] = dose: 400.0 mg/kg/injection, schedule: Q04DX002 (ip), vehicle: saline with Tween-80
[5] = dose: 50.0 mg/kg/injection, schedule: Q01DX001 (ip), vehicle: saline
[6] = dose: 200.0 mg/kg/injection, schedule: Q01DX001 (ip), vehicle: saline
[7] = dose: 400.0 mg/kg/injection, schedule: Q01DX001 (ip), vehicle: saline
[8] = dose: 100.0 mg/kg/injection, schedule: Q04DX003 (ip), vehicle: Klucel (hydroxypropylcellulose) (HPC)
[9] = dose: 200.0 mg/kg/injection, schedule: Q04DX003 (ip), vehicle: Klucel (hydroxypropylcellulose) (HPC)
[10] = dose: 100.0 mg/kg/injection, schedule: Q04DX003 (ip), vehicle: saline
[11] = dose: 200.0 mg/kg/injection, schedule: Q04DX003 (ip), vehicle: saline
[12] = dose: 400.0 mg/kg/injection, schedule: Q04DX003 (ip), vehicle: saline
[13] = dose: 100.0 mg/kg/injection, schedule: Q01DX009 (ip), vehicle: Klucel (hydroxypropylcellulose) (HPC)
[14] = dose: 200.0 mg/kg/injection, schedule: Q01DX009 (ip), vehicle: Klucel (hydroxypropylcellulose) (HPC)
[15] = dose: 400.0 mg/kg/injection, schedule: Q01DX009 (ip), vehicle: Klucel (hydroxypropylcellulose) (HPC)
[16] = dose: 222.0 mg/kg/injection, schedule: Q01DX Z (ip), vehicle: methylcellulose (MC)
[17] = dose: 333.0 mg/kg/injection, schedule: Q01DX Z (ip), vehicle: methylcellulose (MC)
[18] = dose: 400.0 mg/kg/injection, schedule: Q04DX003 (ip), vehicle: Klucel (hydroxypropylcellulose) (HPC)

Measured: T/C

NC(N)=N/N=C/c1cccc(OCC(=O)O)c1
inactive: dose: 15.0 mg/kg/injection, schedule: Q01DX Z (ip), vehicle: carboxymethylcellulose (CMC) 87 % of control | dose: 30.0 mg/kg/injection, schedule: Q01DX Z (ip), vehicle: carboxymethylcellulose (CMC) 92 % of control | dose: 60.0 mg/kg/injection, schedule: Q01DX Z (ip), vehicle: carboxymethylcellulose (CMC) 92 % of control | dose: 60.0 mg/kg/injection, schedule: Q01DX Z (oral), vehicle: carboxymethylcellulose (CMC) 100 % of control | dose: 120.0 mg/kg/injection, schedule: Q01DX Z (ip), vehicle: carboxymethylcellulose (CMC) 94 % of control | dose: 120.0 mg/kg/injection, schedule: Q01DX Z (oral), vehicle: carboxymethylcellulose (CMC) 100 % of control | dose: 240.0 mg/kg/injection, schedule: Q01DX Z (oral), vehicle: carboxymethylcellulose (CMC) 94 % of control | dose: 480.0 mg/kg/injection, schedule: Q01DX Z (oral), vehicle: carboxymethylcellulose (CMC) 100 % of control

CCC(=O)NCC1(c2ccccc2)CCN(CCCC(=O)c2ccc(F)cc2)CC1
inactive: dose: 25.0 mg/kg/injection, schedule: Q01DX009 (ip), vehicle: saline 121 % of control | dose: 50.0 mg/kg/injection, schedule: Q01DX009 (ip), vehicle: saline 113 % of control | dose: 100.0 mg/kg/injection, schedule: Q01DX009 (ip), vehicle: saline 121 % of control

NC(=S)NN=C1CCCC1
inactive: dose: 6.25 mg/kg/injection, schedule: Q04DX003 (ip), vehicle: saline 96 % of control | dose: 12.5 mg/kg/injection, schedule: Q04DX003 (ip), vehicle: saline 94 % of control | dose: 25.0 mg/kg/injection, schedule: Q04DX003 (ip), vehicle: saline 94 % of control

O=[N+]([O-])C1CC=CCC1C(Cl)(Cl)Cl (centres undefined)
inactive: dose: 5.0 mg/kg/injection, schedule: Q04DX003 (ip), vehicle: saline sonified 95 % of control | dose: 10.0 mg/kg/injection, schedule: Q04DX003 (ip), vehicle: saline sonified 110 % of control | dose: 20.0 mg/kg/injection, schedule: Q04DX003 (ip), vehicle: saline sonified 98 % of control

CCC[CH2][Sn]1([CH2]CCC)[O]C(=O)C2C(C=C(C)C)C=C(C)C(C)C2C(=O)[O]1 (centres undefined)
inactive: dose: 5.0 mg/kg/injection, schedule: Q01DX001 (ip), vehicle: saline 93 % of control | dose: 10.0 mg/kg/injection, schedule: Q01DX001 (ip), vehicle: saline 104 % of control | dose: 20.0 mg/kg/injection, schedule: Q01DX001 (ip), vehicle: saline 104 % of control | dose: 40.0 mg/kg/injection, schedule: Q01DX001 (ip), vehicle: saline 96 % of control | dose: 80.0 mg/kg/injection, schedule: Q01DX001 (ip), vehicle: saline 102 % of control | [1] 117 % of control

Nc1ccccc1SC1CC(=O)N(c2ccc3c(c2)OCO3)C1=O (centres undefined)
inactive: [2] 93 % of control | [3] 101 % of control | [4] 86 % of control

CCC1(CCC#N)CCc2[nH]c3ccccc3c2C1=O (centres undefined)
inactive: [2] 108 % of control | [3] 94 % of control | [4] 87 % of control

Cc1cc(C(=O)C=[N+]=[N-])c(CN2C(=O)c3ccccc3C2=O)c(=O)n1C
inactive: dose: 100.0 mg/kg/injection, schedule: Q04DX003 (ip), vehicle: other 100 % of control | dose: 200.0 mg/kg/injection, schedule: Q04DX003 (ip), vehicle: other 93 % of control | dose: 400.0 mg/kg/injection, schedule: Q04DX003 (ip), vehicle: other 94 % of control

CC(=O)OC(C(C)=O)c1ccccc1 (centres undefined)
inactive: [5] 101 % of control | [1] 101 % of control | [6] 98 % of control | [7] 101 % of control

COC(=O)C1=C(C(=O)OC)C2(C)C=CC1O2 (centres undefined)
inactive: dose: 3.12 mg/kg/injection, schedule: Q01DX009 (ip), vehicle: saline with Tween-80 98 % of control | dose: 6.25 mg/kg/injection, schedule: Q01DX009 (ip), vehicle: saline with Tween-80 93 % of control | dose: 12.5 mg/kg/injection, schedule: Q01DX009 (ip), vehicle: saline with Tween-80 98 % of control and 105 % of control | dose: 25.0 mg/kg/injection, schedule: Q01DX009 (ip), vehicle: saline with Tween-80 106 % of control

Cc1cc(Cc2cccc[n+]2[O-])c2ccccc2n1
inactive: [8] 102 % of control | [9] 96 % of control

OCCCNCc1ccccc1
inactive: [10] 94 % of control | [11] 103 % of control | [12] 97 % of control

CCOC(OCC)n1ncnc1NC(=S)NCc1ccccc1
inactive: dose: 50.0 mg/kg/injection, schedule: Q04DX003 (ip), vehicle: saline 100 % of control | [10] 100 % of control | [11] 97 % of control

CCOC(=O)/C=C/P(=O)(OCC)OCC
inactive: [10] 108 % of control | [11] 94 % of control | [12] 96 % of control

c1ccc2c(c1)[nH]c1c[n+]3c(c[n+]12)[nH]c1ccccc13
inactive: [5] 107 % of control | [1] 98 % of control | [6] 113 % of control

CCOC(=O)Nc1ccccc1OCC
inactive: [13] 96 % of control | [14] 95 % of control | [15] 96 % of control

CSc1ccc(NC(=O)Nc2nccs2)cc1
inactive: dose: 200.0 mg/kg/injection, schedule: Q04DX003 (ip), vehicle: saline sonified 87 % of control | dose: 400.0 mg/kg/injection, schedule: Q04DX003 (ip), vehicle: saline sonified 92 % of control

O=C1/C(=C/c2cccc([N+](=O)[O-])c2)CCc2ccccc21
inactive: dose: 100.0 mg/kg/injection, schedule: Q04DX003 (ip), vehicle: acetone 109 % of control | dose: 200.0 mg/kg/injection, schedule: Q04DX003 (ip), vehicle: acetone 101 % of control | dose: 400.0 mg/kg/injection, schedule: Q04DX003 (ip), vehicle: acetone 96 % of control

C(=C\c1ccccn1)/c1ccc2c(c1)OCO2
inactive: dose: 75.0 mg/kg/injection, schedule: Q01DX009 (ip), vehicle: saline 93 % of control | [1] 101 % of control | dose: 150.0 mg/kg/injection, schedule: Q01DX009 (ip), vehicle: saline 93 % of control | [6] 96 % of control | dose: 300.0 mg/kg/injection, schedule: Q01DX009 (ip), vehicle: saline 88 % of control | [7] 95 % of control

O=C1c2ccccc2C(=O)N1Cc1c(Cl)cccc1[N+](=O)[O-]
inactive: [13] 107 % of control | [14] 103 % of control | [15] 92 % of control

Nc1nc(NCCO)c(NC=O)c(=O)[nH]1
inactive: dose: 100.0 mg/kg/injection, schedule: Q01DX Z (ip), vehicle: methylcellulose (MC) 103 % of control | dose: 128.0 mg/kg/injection, schedule: Q01DX Z (ip), vehicle: methylcellulose (MC) 95 % of control | [16] 94 % of control | [17] 97 % of control

O=C(O)CCCNCc1cc(=O)[nH]c(=O)[nH]1
inactive: [10] 101 % of control

CCN(CC)c1cc2c(cc1Br)-c1ccccc1C2=O
inactive: dose: 100.0 mg/kg/injection, schedule: Q04DX003 (ip), vehicle: saline with Tween-80 101 % of control | dose: 200.0 mg/kg/injection, schedule: Q04DX003 (ip), vehicle: saline with Tween-80 104 % of control | dose: 400.0 mg/kg/injection, schedule: Q04DX003 (ip), vehicle: saline with Tween-80 106 % of control

O=C1NC(=O)C2(CCc3ccccc32)N1 (centres undefined)
inactive: dose: 50.0 mg/kg/injection, schedule: Q01DX009 (ip), vehicle: Klucel (hydroxypropylcellulose) (HPC) 105 % of control | [13] 100 % of control | [8] 108 % of control | [14] 98 % of control | [9] 100 % of control | [18] 94 % of control

Ic1ccc(Oc2ccc(I)cc2)cc1
inactive: [8] 113 % of control | [9] 90 % of control | [16] 92 % of control | [17] 92 % of control | [18] 98 % of control | dose: 500.0 mg/kg/injection, schedule: Q01DX Z (ip), vehicle: methylcellulose (MC) 100 % of control

COc1cc2nc3occc3c(OC)c2c2c1OC(C(C)(C)O)C2 (centres undefined)
inactive: dose: 50.0 mg/kg/injection, schedule: Q01DX001 (ip), vehicle: carboxymethylcellulose (CMC) 98 % of control | dose: 100.0 mg/kg/injection, schedule: Q01DX001 (ip), vehicle: carboxymethylcellulose (CMC) 117 % of control | dose: 200.0 mg/kg/injection, schedule: Q01DX001 (ip), vehicle: carboxymethylcellulose (CMC) 93 % of control
